Measurements from patent US20060154243A1 (priority 2003, published 2006).

Tests used:
[1] = system: rabbit serum obtained by immunizing with SARS-CoV strain Frankfurt 1; type: binding
[2] = system: control serum LUMC (pooled serum of ten healthy hospital workers); type: binding, human
[3] = system: control serum Blood-bank (commercial negative donor pooled serum); type: binding, human

Sequence: VLIMLIIFWFSLEIQ
- Rabbit serum linear peptides [1]: 0.4
- Rabbit serum looped peptides [1]: 0.2
- Control serum LUMC linear peptides [2]: 0.7
- Control serum LUMC looped peptides [2]: 0.4
- Control Serum Blood-Bank Looped peptides [3]: 0.7
- Control serum Blood-bank linear peptides [3]: 0.8

Sequence: YLCFLAFLLFLVLIM
- Rabbit serum linear peptides [1]: 0.3
- Rabbit serum looped peptides [1]: 0.3
- Control serum LUMC linear peptides [2]: 0.4
- Control serum LUMC looped peptides [2]: 0.8
- Control Serum Blood-Bank Looped peptides [3]: 0.6
- Control serum Blood-bank linear peptides [3]: 0.8

Sequence: TTEELPDEFVVVTAK
- Rabbit serum linear peptides [1]: 0.0
- Rabbit serum looped peptides [1]: 0.5

Sequence: EDAMGQGQNSADPKV
- Rabbit serum linear peptides [1]: 0.6
- Rabbit serum looped peptides [1]: 0.5

Sequence: DFYLCFLAFLLFLVL
- Rabbit serum linear peptides [1]: 0.3
- Rabbit serum looped peptides [1]: 0.4
- Control serum LUMC linear peptides [2]: 0.4
- Control serum LUMC looped peptides [2]: 0.6
- Control Serum Blood-Bank Looped peptides [3]: 0.6
- Control serum Blood-bank linear peptides [3]: 0.7

Sequence: MDPNQTNVVPPALHL
- Rabbit serum linear peptides [1]: 1.1
- Rabbit serum looped peptides [1]: 0.1

Sequence: LSLSMARRNLDSLEA
- Rabbit serum linear peptides [1]: 0.1
- Rabbit serum looped peptides [1]: 0.3

Sequence: KVYPIILRLGSQLSL
- Rabbit serum linear peptides [1]: 1.8
- Rabbit serum looped peptides [1]: 0.5

Sequence: HLVDPQIQLTITRME
- Rabbit serum linear peptides [1]: 0.1
- Rabbit serum looped peptides [1]: 0.3

Sequence: LLFLVLIMLIIFWFS
- Rabbit serum linear peptides [1]: 0.5
- Rabbit serum looped peptides [1]: 0.6
- Control serum LUMC linear peptides [2]: 0.4
- Control serum LUMC looped peptides [2]: 0.4
- Control Serum Blood-Bank Looped peptides [3]: 0.9
- Control serum Blood-bank linear peptides [3]: 0.9

Sequence: AMGQGQNSADPKVYP
- Rabbit serum linear peptides [1]: 0.1
- Rabbit serum looped peptides [1]: 0.6

Sequence: SADPKVYPIILRLGS
- Rabbit serum linear peptides [1]: 0.1
- Rabbit serum looped peptides [1]: 0.4

Sequence: ARRNLDSLEARAFQS
- Rabbit serum linear peptides [1]: 0.1
- Rabbit serum looped peptides [1]: 0.5

Sequence: NLDSLEARAFQSTPI
- Rabbit serum linear peptides [1]: 0.2
- Rabbit serum looped peptides [1]: 0.4

Sequence: QLSLSMARRNLDSLE
- Rabbit serum linear peptides [1]: 0.1
- Rabbit serum looped peptides [1]: 0.3

Sequence: FYLCFLAFLLFLVLI
- Rabbit serum linear peptides [1]: 0.3
- Rabbit serum looped peptides [1]: 0.6
- Control serum LUMC linear peptides [2]: 0.4
- Control serum LUMC looped peptides [2]: 0.6
- Control Serum Blood-Bank Looped peptides [3]: 0.7
- Control serum Blood-bank linear peptides [3]: 0.8

Sequence: ASNKPHVLEDPCKVQ
- Rabbit serum linear peptides [1]: 0.8
- Rabbit serum looped peptides [1]: 0.9

Sequence: PIILRLGSQLSLSMA
- Rabbit serum linear peptides [1]: 0.1
- Rabbit serum looped peptides [1]: 0.5

Sequence: IILRLGSQLSLSMAR
- Rabbit serum linear peptides [1]: 0.6
- Rabbit serum looped peptides [1]: 0.5

Sequence: YPIILRLGSQLSLSM
- Rabbit serum linear peptides [1]: 0.2
- Rabbit serum looped peptides [1]: 0.4

Sequence: FLLFLVLIMLIIFWF
- Rabbit serum linear peptides [1]: 0.5
- Rabbit serum looped peptides [1]: 0.7
- Control serum LUMC linear peptides [2]: 0.3
- Control serum LUMC looped peptides [2]: 0.5
- Control Serum Blood-Bank Looped peptides [3]: 0.6
- Control serum Blood-bank linear peptides [3]: 0.9

Sequence: LGSQLSLSMARRNLD
- Rabbit serum linear peptides [1]: 0.1
- Rabbit serum looped peptides [1]: 0.3

Sequence: ISLCSCICTVVQRCA
- Rabbit serum linear peptides [1]: 0.1
- Rabbit serum looped peptides [1]: 0.5

Sequence: LVLIMLIIFWFSLEI
- Rabbit serum linear peptides [1]: 0.4
- Rabbit serum looped peptides [1]: 0.6
- Control serum LUMC linear peptides [2]: 0.8
- Control serum LUMC looped peptides [2]: 0.3
- Control Serum Blood-Bank Looped peptides [3]: 0.7
- Control serum Blood-bank linear peptides [3]: 0.9

Sequence: LFLVLIMLIIFWFSL
- Rabbit serum linear peptides [1]: 0.4
- Rabbit serum looped peptides [1]: 0.5
- Control serum LUMC linear peptides [2]: 0.4
- Control serum LUMC looped peptides [2]: 0.4
- Control Serum Blood-Bank Looped peptides [3]: 0.8
- Control serum Blood-bank linear peptides [3]: 0.8

Sequence: SLCSCICTVVQRCAS
- Rabbit serum linear peptides [1]: 0.1
- Rabbit serum looped peptides [1]: 0.2

Sequence: DSLEARAFQSTPIVV
- Rabbit serum linear peptides [1]: 0.1
- Rabbit serum looped peptides [1]: 0.5

Sequence: NSADPKVYPIILRLG
- Rabbit serum linear peptides [1]: 0.1
- Rabbit serum looped peptides [1]: 0.4

Sequence: DPQIQLTITRMEDAM
- Rabbit serum linear peptides [1]: 0.1
- Rabbit serum looped peptides [1]: 0.3

Sequence: PIVVQMTKLATTEEL
- Rabbit serum linear peptides [1]: 0.1
- Rabbit serum looped peptides [1]: 0.6

Sequence: QNSADPKVYPIILRL
- Rabbit serum linear peptides [1]: 0.1
- Rabbit serum looped peptides [1]: 0.1

Sequence: FLVLIMLIIFWFSLE
- Rabbit serum linear peptides [1]: 0.4
- Rabbit serum looped peptides [1]: 0.6
- Control serum LUMC linear peptides [2]: 0.7
- Control serum LUMC looped peptides [2]: 0.7
- Control Serum Blood-Bank Looped peptides [3]: 0.8
- Control serum Blood-bank linear peptides [3]: 0.9

Sequence: TLIDFYLCFLAFLLF
- Rabbit serum linear peptides [1]: 0.4
- Rabbit serum looped peptides [1]: 0.4
- Control serum LUMC linear peptides [2]: 0.8
- Control serum LUMC looped peptides [2]: 0.8
- Control Serum Blood-Bank Looped peptides [3]: 0.4
- Control serum Blood-bank linear peptides [3]: 0.7

Sequence: EARAFQSTPIVVQMT
- Rabbit serum linear peptides [1]: 0.1
- Rabbit serum looped peptides [1]: 0.4

Sequence: PQIQLTITRMEDAMG
- Rabbit serum linear peptides [1]: 0.0
- Rabbit serum looped peptides [1]: 0.2

Sequence: QSTPIVVQMTKLATT
- Rabbit serum linear peptides [1]: 0.0
- Rabbit serum looped peptides [1]: 0.6

Sequence: LCSCICTVVQRCASN
- Rabbit serum linear peptides [1]: 0.1
- Rabbit serum looped peptides [1]: 1.1

Sequence: ALHLVDPQIQLTITR
- Rabbit serum linear peptides [1]: 0.5
- Rabbit serum looped peptides [1]: 0.5

Sequence: KLLIVLTCISLCSCI
- Rabbit serum linear peptides [1]: 0.0
- Rabbit serum looped peptides [1]: 0.5

Sequence: SLEARAFQSTPIVVQ
- Rabbit serum linear peptides [1]: 0.1
- Rabbit serum looped peptides [1]: 0.6

Sequence: GQGQNSADPKVYPII
- Rabbit serum linear peptides [1]: 0.4
- Rabbit serum looped peptides [1]: 0.5

Sequence: QLTITRMEDAMGQGQ
- Rabbit serum linear peptides [1]: 0.1
- Rabbit serum looped peptides [1]: 0.4

Sequence: CASNKPHVLEDPCKV
- Rabbit serum linear peptides [1]: 0.5
- Rabbit serum looped peptides [1]: 0.8

Sequence: MGQGQNSADPKVYPI
- Rabbit serum linear peptides [1]: 0.1
- Rabbit serum looped peptides [1]: 0.6

Sequence: RLGSQLSLSMARRNL
- Rabbit serum linear peptides [1]: 0.1
- Rabbit serum looped peptides [1]: 2.5

Sequence: FQSTPIVVQMTKLAT
- Rabbit serum linear peptides [1]: 0.1
- Rabbit serum looped peptides [1]: 0.6

Sequence: SNKPHVLEDPCKVQH
- Rabbit serum linear peptides [1]: 0.8
- Rabbit serum looped peptides [1]: 0.4

Sequence: MARRNLDSLEARAFQ
- Rabbit serum linear peptides [1]: 0.1
- Rabbit serum looped peptides [1]: 0.5

Sequence: CISLCSCICTVVQRC
- Rabbit serum linear peptides [1]: 0.0
- Rabbit serum looped peptides [1]: 0.5

Sequence: VYPIILRLGSQLSLS
- Rabbit serum linear peptides [1]: 0.6
- Rabbit serum looped peptides [1]: 1.0

Sequence: VDPQIQLTITRMEDA
- Rabbit serum linear peptides [1]: 0.0
- Rabbit serum looped peptides [1]: 0.4

Sequence: AFQSTPIVVQMTKLA
- Rabbit serum linear peptides [1]: 0.1
- Rabbit serum looped peptides [1]: 0.5

Sequence: LIVLTCISLCSCICT
- Rabbit serum linear peptides [1]: 0.1
- Rabbit serum looped peptides [1]: 0.5

Sequence: GQNSADPKVYPIILR
- Rabbit serum linear peptides [1]: 0.1
- Rabbit serum looped peptides [1]: 0.6

Sequence: GSQLSLSMARRNLDS
- Rabbit serum linear peptides [1]: 0.1
- Rabbit serum looped peptides [1]: 0.7

Sequence: RAFQSTPIVVQMTKL
- Rabbit serum linear peptides [1]: 0.1
- Rabbit serum looped peptides [1]: 0.7

Sequence: QGQNSADPKVYPIIL
- Rabbit serum linear peptides [1]: 0.1
- Rabbit serum looped peptides [1]: 0.5

Sequence: LVDPQIQLTITRMED
- Rabbit serum linear peptides [1]: 0.1
- Rabbit serum looped peptides [1]: 0.2

Sequence: LDSLEARAFQSTPIV
- Rabbit serum linear peptides [1]: 0.1
- Rabbit serum looped peptides [1]: 0.5

Sequence: RNLDSLEARAFQSTP
- Rabbit serum linear peptides [1]: 0.3
- Rabbit serum looped peptides [1]: 0.5

Sequence: LSMARRNLDSLEARA
- Rabbit serum linear peptides [1]: 0.0
- Rabbit serum looped peptides [1]: 0.4

Sequence: DAMGQGQNSADPKVY
- Rabbit serum linear peptides [1]: 0.3
- Rabbit serum looped peptides [1]: 0.4

Sequence: LHLVDPQIQLTITRM
- Rabbit serum linear peptides [1]: 0.5
- Rabbit serum looped peptides [1]: 0.6

Sequence: STPIVVQMTKLATTE
- Rabbit serum linear peptides [1]: 0.1
- Rabbit serum looped peptides [1]: 0.5

Sequence: IVLTCISLCSCICTV
- Rabbit serum linear peptides [1]: 0.1
- Rabbit serum looped peptides [1]: 0.6

Sequence: TCISLCSCICTVVQR
- Rabbit serum linear peptides [1]: 0.0
- Rabbit serum looped peptides [1]: 0.5

Sequence: IQLTITRMEDAMGQG
- Rabbit serum linear peptides [1]: 0.0
- Rabbit serum looped peptides [1]: 0.2

Sequence: DPKVYPIILRLGSQL
- Rabbit serum linear peptides [1]: 0.1
- Rabbit serum looped peptides [1]: 0.4

Sequence: SQLSLSMARRNLDSL
- Rabbit serum linear peptides [1]: 0.1
- Rabbit serum looped peptides [1]: 0.4

Sequence: PKVYPIILRLGSQLS
- Rabbit serum linear peptides [1]: 0.1
- Rabbit serum looped peptides [1]: 0.4

Sequence: SLSMARRNLDSLEAR
- Rabbit serum linear peptides [1]: 0.1
- Rabbit serum looped peptides [1]: 0.4

Sequence: IVVQMTKLATTEELP
- Rabbit serum linear peptides [1]: 0.2
- Rabbit serum looped peptides [1]: 0.4

Sequence: SMARRNLDSLEARAF
- Rabbit serum linear peptides [1]: 0.1
- Rabbit serum looped peptides [1]: 0.4

Sequence: ILRLGSQLSLSMARR
- Rabbit serum linear peptides [1]: 0.1
- Rabbit serum looped peptides [1]: 0.7

Sequence: ADPKVYPIILRLGSQ
- Rabbit serum linear peptides [1]: 0.4
- Rabbit serum looped peptides [1]: 0.3

Sequence: LRLGSQLSLSMARRN
- Rabbit serum linear peptides [1]: 0.1
- Rabbit serum looped peptides [1]: 0.5

Sequence: QIQLTITRMEDAMGQ
- Rabbit serum linear peptides [1]: 0.1
- Rabbit serum looped peptides [1]: 0.2

Sequence: LLIVLTCISLCSCIC
- Rabbit serum linear peptides [1]: 0.1
- Rabbit serum looped peptides [1]: 0.5

Sequence: LEARAFQSTPIVVQM
- Rabbit serum linear peptides [1]: 0.1
- Rabbit serum looped peptides [1]: 0.5

Sequence: ARAFQSTPIVVQMTK
- Rabbit serum linear peptides [1]: 0.2
- Rabbit serum looped peptides [1]: 0.7

Sequence: LTCISLCSCICTVVQ
- Rabbit serum linear peptides [1]: 0.1
- Rabbit serum looped peptides [1]: 0.2

Sequence: VLTCISLCSCICTVV
- Rabbit serum linear peptides [1]: 0.0
- Rabbit serum looped peptides [1]: 0.4

Sequence: TPIVVQMTKLATTEE
- Rabbit serum linear peptides [1]: 0.1
- Rabbit serum looped peptides [1]: 0.4

Sequence: MKLLIVLTCISLCSC
- Rabbit serum linear peptides [1]: 0.1
- Rabbit serum looped peptides [1]: 0.5

Sequence: RRNLDSLEARAFQST
- Rabbit serum linear peptides [1]: 0.3
- Rabbit serum looped peptides [1]: 0.5
